Results published in paper PMC7782162, “Inhibition of the β-carbonic anhydrase from the protozoan pathogen Trichomonas vaginalis with sulphonamides” (Journal of Enzyme Inhibition and Medicinal Chemistry, 2020).

Molecular target: T1, TvaCA1 (Trichomonas vaginalis, UniProt A2ENQ8)
T1 construct: gene TVAG_005270; recombinant from E. coli BL21 Star (DE3), Ni2+-NTA purified; beta-CA homodimer with two active sites
T1 sequence (A2ENQ8 1-182): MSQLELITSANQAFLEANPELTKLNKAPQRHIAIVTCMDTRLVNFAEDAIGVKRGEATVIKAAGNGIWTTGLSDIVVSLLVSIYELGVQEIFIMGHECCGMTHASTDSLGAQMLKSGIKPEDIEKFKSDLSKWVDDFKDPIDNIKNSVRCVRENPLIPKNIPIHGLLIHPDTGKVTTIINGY
Experiment: stopped-flow CO2 hydrase assay
Format: biochemical
Settings: read-out: KI^a (nM) / TvaCA1^c

Row | Compound | Ki [nM]
1 | NS(=O)(=O)c1cc(Cl)cc(Cl)c1O [compound 10, 10] | 4540
2 | NS(=O)(=O)c1ccc(O)cc1 [compound 15, 15] | 2030
3 | NS(=O)(=O)c1cccc(S(N)(=O)=O)c1 [compound 3, 3] | 3560
4 | NS(=O)(=O)Cc1noc2ccccc12 [ZNS, zonisamide] | > 50000
5 | Nc1nccc(Nc2ccc(S(N)(=O)=O)cc2)n1 [compound 19, 19] | 4530
6 | CCN[C@H]1CN(CCCOC)S(=O)(=O)c2sc(S(N)(=O)=O)cc21 [BRZ, brinzolamide] | > 50000
7 | Nc1ccc(S(N)(=O)=O)cc1F [compound 7, 7] | 4280
8 | NS(=O)(=O)c1nnc(NS(=O)(=O)c2ccccc2)s1 [BZA, benzolamide] | > 50000
9 | Cn1nc(S(N)(=O)=O)sc1=N [compound 14, 14] | 3990
10 | CC1(C)O[C@@H]2[C@@H](CO[C@@]3(COS(N)(=O)=O)OC(C)(C)O[C@@H]23)O1 [TPM, topiramate] | > 50000
11 | Cc1ccc(S(N)(=O)=O)cc1 [compound 4, 4] | 3600
12 | Nc1cccc(S(N)(=O)=O)c1 [compound 1, 1] | 3250
13 | Nc1nnc(S(N)(=O)=O)s1 [compound 13, 13] | 1890
14 | Nc1ccc(S(N)(=O)=O)cc1 [compound 2, 2] | 4740
15 | NS(=O)(=O)c1cc(Cl)c(Cl)c(S(N)(=O)=O)c1 [DCP, dichlorophenamide] | > 50000
16 | CC(=O)N=c1sc(S(N)(=O)=O)nn1C [MZA, methazolamide] | 3830
17 | NS(=O)(=O)c1ccc(CCNS(=O)(=O)c2ccc([N+](=O)[O-])cc2CO)cc1 [compound 21, 21] | 3450

Molecular target: T1, TvaCA1
Experiment: biochemical
Set-up: stopped-flow CO2 hydration assay, phenol red at 557 nm, TRIS pH 8.3, 15 min preincubation, KI
Settings: inhibitor; read-out: KI^a (nM) / TvaCA1^c / β
Method: An Applied Photophysics stopped-flow instrument was used for assaying the CA catalysed CO2 hydration activity. Phenol red (at a concentration of 0.2 mM) was used as an indicator, working at the absorbance maximum of 557 nm, with 10 − 20 mM HEPES (pH 7.5, for α-CAs) or TRIS (pH 8.3 for β-CAs) as buffers, and 20 mM NaClO4 (for maintaining constant the ionic strength), following the initial rates of the CA-catalysed CO2 hydration reaction for a period of 10–100 s. The CO2 concentrations ranged from 1.7 to 17 mM for the determination of the kinetic parameters and inhibition constants. For each inhibitor, at least six traces of the initial 5–10% of the reaction were used for determining the initial velocity. The uncatalyzed rates were determined in the same manner and subtracted from the total observed rates. Stock solutions of inhibitors (10 mM) and dilutions up to 0.01 nM were prepared in distilled-deionised water. Inhibitor and enzyme solutions of concentrations ranging between 5 and 12 nM were preincubated together for 15 min at room temperature prior to assay, in order to allow for the formation of the enzyme–inhibitor complex. The inhibition constants were obtained by non-linear least-squares methods using PRISM 3 as reported earlier, and represent the mean from at least three different determinations. TvaCA1 was a recombinant enzyme obtained in-house as described earlier. The enzyme was recombinantly produced in E. coli (OneShot® BL21 Star™ (DE3) Chemically Competent Cells, #C601003, Thermo Fisher Scientific, Finland). The enzyme was purified using Ni^2+-NTA agarose affinity chromatography resin (Macherey-Nagel GmbH Co., Germany). More detailed information concerning the recombinant protein production and its kinetic and structural characterisation can be found in our previous article. The presence of the correct protein in the isolated protein fraction was confirmed by tandem mass spectrometry (MS/MS).

Row | Compound | Ki [nM]
18 | Nc1ccc(S(=O)(=O)NCc2ccc(S(N)(=O)=O)cc2)cc1 [compound 23] | > 50000

Same assay, conditions: read-out: KI^a (nM) / TvaCA1^c / β

Row | Compound | Ki [nM]
19 | Cc1onc(-c2ccccc2)c1-c1ccc(S(N)(=O)=O)cc1 [VLX] | > 50000
20 | NS(=O)(=O)c1cc2c(cc1Cl)NCNS2(=O)=O [HCT] | > 50000
21 | Nc1ccc(S(=O)(=O)Nc2nnc(S(N)(=O)=O)s2)cc1 [compound 20] | > 50000
22 | Nc1ccc(S(=O)(=O)Nc2ccc(S(N)(=O)=O)cc2)cc1 [compound 22] | > 50000
23 | NCc1ccc(S(N)(=O)=O)cc1 [compound 5] | > 50000
24 | Cc1ccc(-c2cc(C(F)(F)F)nn2-c2ccc(S(N)(=O)=O)cc2)cc1 [CLX] | > 50000
25 | NS(=O)(=O)c1ccc(S(=O)(=O)Nc2cccc3c(Cl)c[nH]c23)cc1 [IND] | > 50000
26 | NS(=O)(=O)c1ccc(CO)cc1 [compound 16] | > 50000
27 | Nc1cc(C(F)(F)F)c(S(N)(=O)=O)cc1S(N)(=O)=O [compound 11] | > 50000
28 | O=C1NS(=O)(=O)c2ccccc21 [SAC] | > 50000
29 | NS(=O)(=O)c1ccc(N2CCCCS2(=O)=O)cc1 [SLT] | > 50000
30 | NCCc1ccc(S(N)(=O)=O)cc1 [compound 6] | > 50000
31 | Nc1ccc(S(N)(=O)=O)cc1Br [compound 9] | > 50000
32 | NS(=O)(=O)c1ccc(C(=O)O)cc1 [compound 18] | > 50000
33 | NS(=O)(=O)c1ccc(CCO)cc1 [compound 17] | > 50000
34 | Nc1ccc(S(N)(=O)=O)cc1Cl [compound 8] | > 50000
35 | Nc1cc(Cl)c(S(N)(=O)=O)cc1S(N)(=O)=O [compound 12] | > 50000
